The values below come from patent US20050209278A1, “Piperidinyl- and piperazinyl-sulfonylmethyl hydroxamic acids and their use as protease inhibitors” (priority 2002, published 2005).

Structures are written as SMILES.

For the assay, the target named is T1, MMP-1 (Homo sapiens, UniProt P03956).
T1 construct: made in house; host or cells: MMP-1-transfected HT-1080 cells (spent media)
T1 sequence (P03956 100-469): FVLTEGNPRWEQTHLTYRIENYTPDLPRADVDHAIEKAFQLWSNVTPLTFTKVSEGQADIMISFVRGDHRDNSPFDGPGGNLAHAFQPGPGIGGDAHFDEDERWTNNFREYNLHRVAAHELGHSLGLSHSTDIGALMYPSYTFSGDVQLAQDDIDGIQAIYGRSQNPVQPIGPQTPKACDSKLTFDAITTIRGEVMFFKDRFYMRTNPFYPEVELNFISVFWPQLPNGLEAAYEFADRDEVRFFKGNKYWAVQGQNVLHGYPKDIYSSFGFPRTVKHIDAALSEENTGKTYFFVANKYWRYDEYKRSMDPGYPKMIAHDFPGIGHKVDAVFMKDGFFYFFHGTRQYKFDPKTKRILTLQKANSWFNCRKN
Put plainly: In vitro MMP inhibition, Ki determination (fluorogenic substrate II). It counts as biochemical. To be noted: value not in parenthesis; read-out: MMP-1 Ki.
As to `CCCCCc1ccc(N2CCN(S(=O)(=O)C3(C(=O)NO)CCN(C(=O)CC)CC3)CC2)cc1` [Example 206], the Ki was over 10 µM. Under `COCCN1CCC(C(=O)NO)(S(=O)(=O)N2CCN(c3ccc(C)cc3)CC2)CC1` [Example 194] stands 7.73 µM. Then `Cc1ccc(N2CCC(C(=O)NO)(S(=O)(=O)N3CCN(c4ccc(OCCCC(F)(F)F)cc4)CC3)CC2)cc1` [Example 161], with over 10 µM.

For the molecule `CCCc1cnc(N2CCN(S(=O)(=O)C3(C(=O)NO)CCN(CCOC)CC3)CC2)nc1` [Example 178], the inhibitory constant (Ki) was over 10 µM.

Consider `O=C(NO)C1(S(=O)(=O)N2CCN(c3ccc(OC(F)(F)F)cc3)CC2)CCN(C2CC2)CC1` [Example 203], for which the Ki amounted to 7.36 µM. Under `CCCc1nnc(N2CCN(S(=O)(=O)C3(C(=O)NO)CCOCC3)CC2)s1` [Example 216] stands over 10 µM.

With `CCCCCc1ccc(N2CCN(S(=O)(=O)C3(C(=O)NO)CCOCC3)CC2)nn1` [Example 197], the Ki was over 10 µM. Turning to `CCCCOc1ccc(N2CCN(S(=O)(=O)C3(C(=O)NO)CCN(C(=O)c4ccco4)CC3)CC2)cc1` [Example 156], the Ki is over 10 µM. Then `CCCCOc1ccc(N2CCN(S(=O)(=O)C3(C(=O)NO)CCN(C(=O)c4cccs4)CC3)CC2)cc1` [Example 160], with over 10 µM. Under `COCCN1CCC(C(=O)NO)(S(=O)(=O)N2CCN(c3ccc(OCC(C)C)c(F)c3)CC2)CC1` [Example 166] stands over 10 µM. Under `COCCN1CCC(C(=O)NO)(S(=O)(=O)N2CCN(c3nc4ccccc4o3)CC2)CC1` [Example 196] stands over 10 µM; under `CCCCOc1ccc(N2CCN(S(=O)(=O)C3(C(=O)NO)CCN(C(=O)N(C(C)C)C(C)C)CC3)CC2)cc1` [Example 244], over 10 µM; under `COCCN1CCC(C(=O)NO)(S(=O)(=O)N2CCN(c3ccc(CC(C)C)cc3)CC2)CC1` [Example 192], over 10 µM.

As for `CCC(C)Cc1ccc(N2CCN(S(=O)(=O)C3(C(=O)NO)CCN(CCOC)CC3)CC2)cc1` (stereo not drawn) [Example 190], the Ki is over 10 µM. Under `CCCc1ccc(N2CCN(S(=O)(=O)C3(C(=O)NO)CCN(CCOC)CC3)CC2)cc1` [Example 200] stands over 10 µM; under `CCCCCc1cnc(N2CCN(S(=O)(=O)C3(C(=O)NO)CCOCC3)CC2)cn1` [Example 219], over 10 µM.

`CCCCOc1ccc(N2CCN(S(=O)(=O)C3(C(=O)NO)CCN(Cc4ncc[nH]4)CC3)CC2)cc1` [Example 247]: the Ki is over 10 µM. Then `CCCCOc1ccc(N2CCN(S(=O)(=O)C3(C(=O)NO)CCN(c4cccc(C)c4)CC3)CC2)cc1` [Example 226], with over 10 µM. Under `CCCCOc1ccc(N2CCN(S(=O)(=O)C3(C(=O)NO)CCN(CCOC)CC3)CC2)cn1` [Example 164] stands over 10 µM; under `CCCCOc1ccc(N2CCN(S(=O)(=O)C3(C(=O)NO)CCN(C(=O)N4CCN(C)CC4)CC3)CC2)cc1` [Example 230], over 10 µM. Under `O=C(NO)C1(S(=O)(=O)N2CCN(c3ccccn3)CC2)CCOCC1` [Example 169] stands 0.45 µM; under `O=C(NO)C1(S(=O)(=O)N2CCN(c3ccc(SC(F)(F)F)cc3)CC2)CCOCC1` [Example 170], 7.81 µM. On to `CCCCc1ccc(N2CCN(S(=O)(=O)C(C)C(=O)NO)CC2)nc1` (stereo not drawn) [Example 217], for which the Ki was over 10 µM. On to `COCCSc1ccc(N2CCN(S(=O)(=O)C3(C(=O)NO)CCOCC3)CC2)cc1` [Example 227], for which the Ki amounted to 9.28 µM.

Turning to `CCCCc1nnc(N2CCN(S(=O)(=O)C3(C(=O)NO)CCOCC3)CC2)s1` [Example 214], the inhibition constant (Ki) is over 10 µM.

On to `O=C(NO)C1(S(=O)(=O)N2CCN(c3ccc4c(c3)OC(F)(F)C(F)(F)O4)CC2)CCOCC1` [Example 67], for which the Ki is over 10 µM. Then `COCCN1CCC(C(=O)NO)(S(=O)(=O)N2CCN(c3ccccc3)CC2)CC1` [Example 195], with 2.98 µM.

On to `CCCCCc1ccc(N2CCN(S(=O)(=O)C3(C(=O)NO)CCN(C(C)=O)CC3)CC2)cc1` [Example 239], for which the Ki was over 10 µM. Then `Cc1ccc(-c2ccc(N3CCN(S(=O)(=O)C4(C(=O)NO)CCOCC4)CC3)cc2)cc1` [Example 207], with 3.25 µM; and `CCCCOc1ccc(N2CCN(S(=O)(=O)C3(C(=O)NO)CCN(c4ccc(C#N)cc4)CC3)CC2)cc1` [Example 225], with over 10 µM; and `CCCCCc1ccc(N2CCN(S(=O)(=O)C3(C(=O)NO)CCOCC3)CC2)nc1` [Example 167], with 6.22 µM. Under `CCCCOc1ccc(N2CCN(S(=O)(=O)C3(C(=O)NO)CCN(Cc4ccc(C)o4)CC3)CC2)cc1` [Example 246] stands over 10 µM. Then `CCCCOc1ccc(N2CCN(S(=O)(=O)C3(C(=O)NO)CCN(Cc4nccn4C)CC3)CC2)cc1` [Example 245], with over 10 µM; and `CCCCOc1ccc(N2CCN(S(=O)(=O)C3(C(=O)NO)CCN(c4ccc(N(C)C)cc4)CC3)CC2)cc1` [Example 241], with over 10 µM. `COCCN1CCC(C(=O)NO)(S(=O)(=O)N2CCN(c3ccc(C(C)=O)cc3)CC2)CC1` [Example 174]: the Ki is 4.65 µM. Under `CCCCOc1ccc(N2CCN(S(=O)(=O)C3(C(=O)NO)CC3)CC2)cc1` [Example 63] stands over 10 µM; under `O=C(NO)C1(S(=O)(=O)N2CCN(c3ccc(OCCN4CCCC4)cc3)CC2)CCOCC1` [Example 162], over 10 µM; under `COCCN1CCC(C(=O)NO)(S(=O)(=O)N2CCN(c3ccc(Br)cc3)CC2)CC1` [Example 201], 2.73 µM. Under `CCCCOc1ccc(N2CCN(S(=O)(=O)C3(C(=O)NO)CCN(C(=O)N4CCCC4)CC3)CC2)cc1` [Example 231] stands over 10 µM. Then `CCCCOc1ccc(N2CCN(S(=O)(=O)C3(C(=O)NO)CCN(c4ccc5c(c4)OCO5)CC3)CC2)cc1` [Example 221], with over 10 µM; and `CCCCOc1ccc(N2CCN(S(=O)(=O)C3(C(=O)NO)CCSCC3)CC2)cc1` [Example 232], with over 10 µM; and `CC(C)Cc1ccc(N2CCN(S(=O)(=O)C3(C(=O)NO)CCOCC3)CC2)c(F)c1` [Example 213], with over 10 µM.

For `CCCCOc1ccc(N2CCN(S(=O)(=O)C3(C(=O)NO)CCN(c4ccsc4)CC3)CC2)cc1` [Example 223], the Ki is over 10 µM.

Regarding `CCCC(C)Cc1ccc(N2CCN(S(=O)(=O)C3(C(=O)NO)CCN(CCOC)CC3)CC2)cc1` (stereo not drawn) [Example 189], the Ki is over 10 µM. Under `CCCCOc1ccc(N2CCN(S(=O)(=O)C3(C(=O)NO)CCN(C(=O)N(CC)CC)CC3)CC2)cc1` [Example 242] stands over 10 µM. As to `CCCCCc1ccc(N2CCN(S(=O)(=O)C3(C(=O)NO)CCN(S(C)(=O)=O)CC3)CC2)cc1` [Example 237], the Ki was over 10 µM. For the molecule `CCCCCc1ccc(N2CCN(S(=O)(=O)C3(C(=O)NO)CCN(S(=O)(=O)N(C)C)CC3)CC2)cc1` [Example 236], the inhibitory constant (Ki) was over 10 µM. Then `CCc1ccc(N2CCN(S(=O)(=O)C3(C(=O)NO)CCN(CCOC)CC3)CC2)cc1` [Example 193], with 7.18 µM. Then `COc1ccc(-c2ccc(N3CCN(S(=O)(=O)C4(C(=O)NO)CCOCC4)CC3)nc2)cc1` [Example 61], with 0.493 µM.

As for `O=C(NO)C1(S(=O)(=O)N2CCN(c3ccc(-c4ccc(F)cc4)cc3)CC2)CCOCC1` [Example 208], the Ki came to 1.73 µM. Then `CCCCOc1ccc(N2CCN(S(=O)(=O)C3(C(=O)NO)CCS(=O)(=O)CC3)CC2)cc1` [Example 222], with over 10 µM; and `CCOCCSc1ccc(N2CCN(S(=O)(=O)C3(C(=O)NO)CCOCC3)CC2)cc1` [Example 234], with over 10 µM; and `O=C(NO)C1(S(=O)(=O)N2CCN(c3nncs3)CC2)CCOCC1` [Example 215], with over 10 µM. Then `O=C(NO)C1(S(=O)(=O)N2CCN(c3cnc(CCC(F)(F)C(F)(F)F)cn3)CC2)CCOCC1` [Example 210], with over 10 µM. Under `CCCCC(=O)c1ccc(N2CCN(S(=O)(=O)C3(C(=O)NO)CCN(CCOC)CC3)CC2)cc1` [Example 177] stands 7.36 µM; under `CCCNC(=O)c1ccc(N2CCN(S(=O)(=O)C3(C(=O)NO)CCN(CCOC)CC3)CC2)cc1` [Example 175], over 10 µM; under `CCCc1ccc(N2CCN(S(=O)(=O)C3(C(=O)NO)CCN(c4ccc(C)cc4)CC3)CC2)cc1` [Example 171], over 10 µM. As for `O=C(NO)C1(S(=O)(=O)N2CCN(c3ccc(OC(F)(F)C(F)F)cc3)CC2)CCSCC1` [Example 62], the Ki turned out to be 2.31 µM.

Consider `CCCCOc1ccc(N2CCN(S(=O)(=O)C3(C(=O)NO)CCN(C(=O)NC(C)(C)C)CC3)CC2)cc1` [Example 240], for which the Ki was over 10 µM.

`CCCCCc1ccc(N2CCN(S(=O)(=O)C3(C(=O)NO)CCN(S(N)(=O)=O)CC3)CC2)cc1` [Example 205]: the Ki was over 10 µM.

In the case of `CCCCOc1ccc(N2CCN(S(=O)(=O)C3(C(=O)NO)CCN(CCN4CCOCC4)CC3)CC2)cc1` [Example 233], the Ki is over 10 µM. As for `COCCN1CCC(C(=O)NO)(S(=O)(=O)N2CCN(c3ccc(OC(F)(F)F)cc3)CC2)CC1` [Example 202], the Ki was found to be 7.52 µM.

`O=C(NO)C1(S(=O)(=O)N2CCN(c3ccc(OCC(F)(F)C(F)(F)F)cc3)CC2)CCOCC1` [Example 212]: the Ki came to 9.81 µM.

Regarding `CCCCOc1c(F)cc(N2CCN(S(=O)(=O)C3(C(=O)NO)CCN(CCOC)CC3)CC2)cc1F` [Example 165], the Ki was over 10 µM. For `O=C(NO)C1(S(=O)(=O)N2CCN(c3cnc(CCCC(F)(F)F)cn3)CC2)CCOCC1` [Example 209], the Ki is over 10 µM. Then `CCCCOc1ccc(N2CCN(S(=O)(=O)C3(C(=O)NO)CCN(CCN(CC)CC)CC3)CC2)cc1` [Example 235], with over 10 µM.

Broadly, the Ki is the dissociation constant of the complex between target and ligand, obtained from inhibition or displacement.
